The experiment has as its target human PCSK9 (Homo sapiens, UniProt Q8NBP7). Description: PCSK9 ligand binding assay (TR-FRET): interference with binding of human PCSK9 to human LDLR. The note with it: for IC50: Human PCSK9 Alexa Fluor 647 / Human LDLR extracellular domain-Europium Kryptate; for Max % inhibition: efficacy (Amax), 100% = 1 uM unlabeled human PCSK9, 0% = DMSO. As to the method:
Example 10: PCSK9 Ligand Binding Assay
The PCSK9 binding of the compounds of the disclosure were measured using a time resolved fluorescence resonance energy transfer (TR-FRET) assay. This time resolved fluorescence resonance energy transfer (TR-FRET) assay measures the ability of a compound of the present disclosure to interfere with the binding of human PCSK9 to human LDLR, providing measures of both potency (IC50) and efficacy (Amax).
Human PCSK9 Alexa Fluor 647
Human LDLR extracellular domain-Europium Kryptate
Proxi plate-low volume assay plate (PerkinElmer #6008280)
Greiner V-bottom (Greiner BioOne #781280)
Assay Buffer • 20 mM HEPES, pH 7.5 • 150 mM NaCl • 1 mM CaCl2 • 0.01% v/v Tween20 • 0.01% w/v BSA
A master compound plate was prepared in a Greiner V bottom plate by diluting compounds of the disclosure in dimethylsulfoxide to the correct concentration for the desired top concentration based on the desired final concentration: for a 30 uM final concentration the master plate concentration is 1.5 mM (68 uL DMSO+12 uL 10 mM of a compound of the disclosure), for a 10 uM final concentration the master plate concentration is 0.5 mM (76 uL DMSO+4 uL 10 mM of a compound of the disclosure), for a 3 uM final concentration the master plate concentration is 150 uM (69 uL DMSO+1 uL 10 mM of a compound of the disclosure). These solutions were pipetted into columns 1 and 11 of the compound plate. Threefold serial dilutions were generated in columns 2-10 and 12-20 of the compound plate by transferring 10 uL into 20 uL of DMSO. Columns 21 and 22 of the compound plate were negative controls containing DMSO alone.
An intermediate plate was generated in a Greiner V bottom plate by transferring 8 uL from each well of the master plate into a corresponding well containing 92 uL of assay buffer and mixing thoroughly.
A Proxi plate-low volume assay plate was used for the assay. To all wells of the plate was added 10 uL of 16 nM Human PCSK9 Alexa Fluor 647, followed by 5 uL from the intermediate plate. For the positive control wells in columns 23 and 24 of the plate, 5 uL of unlabeled human PCSK9 was added at 4 uM in assay buffer containing 8% DMSO. Following a 30 minute incubation, 5 uL of 4 nM Human LDLR extracellular domain-Europium Kryptate was added and the mixture was incubated for an additional 2 hours.
The TR-FRET signal was measured on an EnVision or PheraStar instrument with a 60 ms delay, 330 nm excitation and 665 nm emission (FRET), and 330 nm excitation and 615 nm (Europium). The FRET ratio (FRET/Europium) was used for calculations.
No inhibition (0%) was observed from the wells containing DMSO (Control) in columns 21 and 22 of the compound plate. Full inhibition (100%) was observed from the wells containing 1 uM human PCSK9 (Control) in columns 23 and 24 of the plate. Data is expressed as percent inhibition: (value—0%)/(100%-0%).
(TR-FRET usually uses a lanthanide donor and a delayed reading to cut background.)

For orientation: IC50 means the concentration needed to halve the response being measured. Read a high IC50 as lower potency.

Chain of human PCSK9 (Q8NBP7 153-692): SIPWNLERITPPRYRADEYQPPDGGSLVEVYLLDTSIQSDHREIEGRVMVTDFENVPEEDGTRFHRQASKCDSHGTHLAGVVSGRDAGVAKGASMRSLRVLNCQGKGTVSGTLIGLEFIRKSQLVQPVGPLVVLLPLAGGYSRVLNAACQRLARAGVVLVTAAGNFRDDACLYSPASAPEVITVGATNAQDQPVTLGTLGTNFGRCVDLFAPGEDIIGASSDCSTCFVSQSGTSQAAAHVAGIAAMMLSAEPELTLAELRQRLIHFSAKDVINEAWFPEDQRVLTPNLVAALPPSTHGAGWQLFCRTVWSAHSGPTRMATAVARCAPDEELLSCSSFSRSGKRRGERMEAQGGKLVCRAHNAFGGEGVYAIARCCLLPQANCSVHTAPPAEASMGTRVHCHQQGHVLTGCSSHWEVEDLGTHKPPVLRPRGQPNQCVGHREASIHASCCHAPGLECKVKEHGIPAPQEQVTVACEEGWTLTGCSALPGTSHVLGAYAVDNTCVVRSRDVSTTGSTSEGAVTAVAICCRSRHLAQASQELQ
Chain of human PCSK9 (Q8NBP7 31-152 partner limits assumed): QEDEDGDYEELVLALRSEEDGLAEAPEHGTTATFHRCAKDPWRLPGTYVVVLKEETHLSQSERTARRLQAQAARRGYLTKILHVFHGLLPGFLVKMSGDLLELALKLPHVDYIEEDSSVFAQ

In the case of `C[C@H]1C(=O)N[C@@H](CO)C(=O)N[C@@]2(Cc3ccc(Cl)cc3)CCCN(C2)C(=O)[C@H](Cc2ccccn2)CC(=O)N1Cc1ccc(Cl)cc1Oc1ccc(-c2cnc(CN3CCCC3)n2C)cc1` [Compound 1, (3R,7S,10S,13R)-6-(4-Chloro-2-(4-(1-methyl-2-(pyrrolidin-1-ylmethyl)-1H-imidazol-5-yl)phenoxy)benzyl)-13-(4-chlorobenzyl)-10-(hydroxymethyl)-7-methyl-3-(pyridin-2-ylmethyl)-1,6,9,12-tetraazabicyclo[11.3.1]heptadecane-2,5,8,11-tetraone], the IC50 worked out at 0.562 nM and the Max % inhibition was found to be 103.2%.

For `COC[C@@H]1NC(=O)[C@H](C)N(Cc2ccc(Cl)cc2Oc2ccc(-c3cnc(CN(C)C)n3C)cc2)C(=O)C[C@@H](CC(F)(F)F)C(=O)N2CCC[C@@](Cc3ccc(Cl)cc3)(C2)NC1=O` [Compound 2, (3S, 7S, 10S, 13R)-6-(4-chloro-2-(4-(2-((dimethylamino)methyl)-1-methyl-1H-imidazol-5-yl)phenoxy)benzyl)-13-(4-chlorobenzyl)-10-(methoxymethyl)-7-methyl-3-(2,2,2-trifluoroethyl)-1,6,9,12-tetraazabicyclo[11.3.1]heptadecane-2,5,8,11-tetraone], the 50% inhibitory concentration (IC50) was found to be 0.847 nM and the Max % inhibition came to 112.5%.

`COC[C@@H]1NC(=O)[C@H](C)N(Cc2c(F)cc(Cl)cc2Oc2ccc(-c3cnc(CN(C)C)n3C)cc2)C(=O)C[C@@H](Cc2cccc[n+]2[O-])C(=O)N2CCC[C@@](Cc3ccc(Cl)cc3)(C2)N(C)C1=O` [Compound 3, 2-(((3R, 7S, 10S, 13R)-6-(4-chloro-2-(4-(2-((dimethylamino)methyl)-1-methyl-1H-imidazol-5-yl)phenoxy)-6-fluorobenzyl)-13-(4-chlorobenzyl)-10-(methoxymethyl)-7,12-dimethyl-2,5,8,11-tetraoxo-1,6,9,12-tetraazabicyclo[11.3.1]heptadecan-3-yl)methyl)pyridine 1-oxide]: the half-inhibitory concentration (IC50) stood at 0.452 nM and the Max % inhibition was determined as 113.9%.

As to `COC[C@@H]1NC(=O)[C@H](C)N(Cc2ccc(Cl)cc2Oc2ccc(-c3cnc(CN(C)C)n3C)cc2)C(=O)C[C@@H](Cc2cccc(C)n2)C(=O)N2CCC[C@@](Cc3ccc(Cl)cc3)(C2)NC1=O` [Compound 4, (3R,7S,10S,13R)-6-(4-Chloro-2-(4-(2-((dimethylamino)methyl)-1-methyl-1H-imidazol-5-yl)phenoxy)benzyl)-13-(4-chlorobenzyl)-10-(methoxymethyl)-7-methyl-3-((6-methylpyridin-2-yl)methyl)-1,6,9,12-tetraazabicyclo[11.3.1]heptadecane-2,5,8,11-tetraone], the 50% inhibitory concentration (IC50) amounted to 0.558 nM and the Max % inhibition was 106.4%.

Regarding `C[C@H]1C(=O)N[C@@H](CO)C(=O)N[C@@]2(Cc3ccc(Cl)cc3)CCCN(C2)C(=O)[C@H](CC(F)(F)F)CC(=O)N1Cc1c(F)cc(Cl)cc1Oc1ccc(-c2cnc(CNC3CCC3)n2C)cc1` [Compound 5, (3S, 7S, 10S, 13R)-6-(4-chloro-2-(4-(2-((cyclobutylamino)methyl)-1-methyl-1H-imidazol-5-yl)phenoxy)-6-fluorobenzyl)-13-(4-chlorobenzyl)-10-(hydroxymethyl)-7-methyl-3-(2,2,2-trifluoroethyl)-1,6,9,12-tetraazabicyclo[11.3.1]heptadecane-2,5,8,11-tetraone], the 50% inhibitory concentration (IC50) turned out to be 0.4 nM and the Max % inhibition was determined as 101.9%.

As to `COC[C@@H]1NC(=O)[C@H](C)N(Cc2ccc(Cl)cc2Oc2ccc(-c3cnc(CNC(C)(C)C)n3C)cc2)C(=O)C[C@@H](CC(F)(F)F)C(=O)N2CCC[C@@](Cc3ccc(Cl)cc3)(C2)NC1=O` [Compound 6, (3S, 7S, 10S, 13R)-6-(2-(4-(2-((tert-butylamino)methyl)-1-methyl-1H-imidazol-5-yl)phenoxy)-4-chlorobenzyl)-13-(4-chlorobenzyl)-10-(methoxymethyl)-7-methyl-3-(2,2,2-trifluoroethyl)-1,6,9,12-tetraazabicyclo[11.3.1]heptadecane-2,5,8,11-tetraone], the IC50 was found to be 0.956 nM and the Max % inhibition was found to be 119.9%.

On to `Cc1c(CN(C)C)ncn1-c1ccc(Oc2cc(Cl)ccc2CN2C(=O)C[C@@H]([C@@H]3CCc4ccccc43)C(=O)N3CCC[C@@](Cc4ccc(Cl)cc4)(C3)NC(=O)[C@H](CO)NC(=O)[C@@H]2C)cc1` [Compound 7, (3S, 7S, 10S, 13R)-6-(4-chloro-2-(4-(4-((dimethylamino)methyl)-5-methyl-1H-imidazol-1-yl)phenoxy)benzyl)-13-(4-chlorobenzyl)-3-((S)-2,3-dihydro-1H-inden-1-yl)-10-(hydroxymethyl)-7-methyl-1,6,9,12-tetraazabicyclo[11.3.1]heptadecane-2,5,8,11-tetraone], for which the half-inhibitory concentration (IC50) is 0.401 nM and the Max % inhibition is 107.3%.

As for `COC[C@@H]1NC(=O)[C@H](C)N(Cc2c(F)cc(Cl)cc2Oc2ccc(-c3cnc(CN(C)C)n3C)nc2)C(=O)C[C@@H](CC(F)(F)F)C(=O)N2CCC[C@@](Cc3ccc(Cl)cc3)(C2)NC1=O` [Compound 8], the IC50 stood at 0.465 nM and the Max % inhibition turned out to be 104.7%.

For `COC[C@@H]1NC(=O)[C@H](C)N(Cc2ccc(Cl)cc2Oc2ccc(-c3cnc(CN(C)C)n3C)cc2)C(=O)C[C@@H](CC(F)(F)F)C(=O)N2CCC[C@@](Cc3ccc(Cl)cc3)(C2)N(C)C1=O` [Compound 9, (3S, 7S, 10S, 13R)-6-(4-chloro-2-(4-(2-((dimethylamino)methyl)-1-methyl-1H-imidazol-5-yl)phenoxy)benzyl)-13-(4-chlorobenzyl)-10-(methoxymethyl)-7,12-dimethyl-3-(2,2,2-trifluoroethyl)-1,6,9,12-tetraazabicyclo[11.3.1]heptadecane-2,5,8,11-tetraone], the IC50 stood at 0.22 nM and the Max % inhibition stood at 111.3%.

On to `C[C@H]1C(=O)N[C@@H](CO)C(=O)N[C@@]2(Cc3ccc(Cl)cc3)CCCN(C2)C(=O)[C@H](CC2CC2)CC(=O)N1Cc1c(F)cc(Cl)cc1Oc1ccc(-c2cnc(CN3CCCC3)n2C)cc1` [Compound 10, (3R, 7S, 10S, 13R)-6-(4-chloro-2-fluoro-6-(4-(1-methyl-2-(pyrrolidin-1-ylmethyl)-1H-imidazol-5-yl)phenoxy)benzyl)-13-(4-chlorobenzyl)-3-(cyclopropylmethyl)-10-(hydroxymethyl)-7-methyl-1,6,9,12-tetraazabicyclo[11.3.1]heptadecane-2,5,8,11-tetraone], for which the concentration for half-maximal inhibition (IC50) came out at 0.152 nM and the Max % inhibition is recorded as 115.5%.

Take `C[C@H]1C(=O)N[C@@H](CO)C(=O)N[C@@]2(Cc3ccc(Cl)cc3)CCCN(C2)C(=O)[C@H](Cc2ccccc2)CC(=O)N1Cc1c(F)cc(Cl)cc1Oc1ccc(-c2cnc(CN(C)C)n2C)cc1` [Compound 11, (3R, 7S, 10S, 13R)-3-benzyl-6-(4-chloro-2-(4-(2-((dimethylamino)methyl)-1-methyl-1H-imidazol-5-yl)phenoxy)-6-fluorobenzyl)-13-(4-chlorobenzyl)-10-(hydroxymethyl)-7-methyl-1,6,9,12-tetraazabicyclo[11.3.11]-heptadecane-2,5,8,11-tetraone]: the half-inhibitory concentration (IC50) stood at 0.351 nM and the Max % inhibition is 110.0%.

With `COC[C@@H]1NC(=O)[C@H](C)N(Cc2ccc(Cl)cc2Oc2ccc(-c3cnc(CN(C)C)n3C)nc2)C(=O)C[C@@H](CC(F)(F)F)C(=O)N2CCC[C@@](Cc3ccc(Cl)cc3)(C2)N(C)C1=O` [Compound 12, (3S, 7S, 10S, 13R)-6-(4-chloro-2-((6-(2-((dimethylamino)methyl)-1-methyl-1H-imidazol-5-yl)pyridin-3-yl)oxy)benzyl)-13-(4-chlorobenzyl)-10-(methoxymethyl)-7,12-dimethyl-3-(2,2,2-trifluoroethyl)-1,6,9,12-tetraazabicyclo[11.3.1]heptadecane-2,5,8,11-tetraone], the IC50 is 0.152 nM and the Max % inhibition turned out to be 112.8%.

For `COC[C@@H]1NC(=O)[C@H](C)N(Cc2c(F)cc(Cl)cc2Oc2ccc(-c3cnc(CN4CCCC4)n3C)cc2)C(=O)C[C@@H](Cc2cccc(C)n2)C(=O)N2CCC[C@@](Cc3ccc(Cl)cc3)(C2)N(C)C1=O` [Compound 14], the IC50 stood at 0.632 nM and the Max % inhibition was 102.7%.

For the origin of these results see US11813306B2, “Cyclic tetramer compounds as proprotein convertase subtilisin/kexin type 9 (PCSK9) inhibitors for the treatment of metabolic disorders” (NOVARTIS AG, priority 2018, dated 2023).
